Experimental data reported in US20040018941A1, “Fused-benzene derivatives of thiouracil, herbicidal and desiccant compositions contaning them” (ISHIHARA SANGYO KAISHA, LTD., priority 2002, published 2004).

What was measured:
Assay type in all cases: in vivo
Details in all cases: rating 0-100 (0 no damage, 100 complete death), 14 days after application
[1] = system: field corn (Zea mays L., var. Dekalb 527, CORN); assay: Post-emerge crop damage, greenhouse screen, CORN
From the text: (§1) A standard greenhouse herbicide activity screening system was used to evaluate the herbicidal efficacy and crop safety of these test compounds. Seven broadleaf weed species including redroot pigweed (Amaranthus retroflexus, AMARE), velvetleaf (Abutilon theophrasti, ABUTH), sicklepod (Cassia obtusifolia, CASOB), ivyleaf morningglory (Ipomoea hederacea, IPOHE), lambsquarters (Chenopodium album, CHEAL), common ragweed (Ambrosia artemisiifolia L., AMBEL), and cocklebur (Xanthium strumarium, XANST) were used as test species. Four grass weed species including green foxtail (Setaria viridis, SETVI), barnyardgrass (Echinochloa crus-galli, ECHCG), johnsongrass (Sorghum halepense, SORHA), and large crabgrass (Digitaria sanguinalis, DIGSA) were also used. In addition, three crop species, field corn (Zea mays L., var. Dekalb 527, CORN), soybean (Glycine max L., var. Pella 86, SOY), and upland rice (Oryza sp., var. Tebonnet, RICE) were included.
(§2) All plants were grown in 10 cm square plastic pots which were filled with a sandy loam soil mix. For pre-emerge tests, seeds were planted one day prior to application of the test compounds. For post-emerge tests, seeds were planted 8-21 days prior to the test to allow emergence and good foliage development prior to application of the test substances. At the time of the post-emerge application, plants of all species were usually at the 2-3 leaf stage of development.
(§3) All test compounds were dissolved in acetone and applied to the test units in a volume of 187 l/ha. Test materials were applied at rates ranging from 15 g ai/ha to 1000 g ai/ha using a track sprayer equipped with a TJ8001 E even flow flat fan spray nozzle. Plants were arranged on a shelf so that the top of the canopy (post-emerge) or top of the soil surface (pre-emerge) was 40-45 cm below the nozzle. Pressurized air was used to force the test solution through the nozzle as it was mechanically advanced over the top of all test plants/pots. This application simulates a typical commercial field herbicide application.
(§4) In the post-emerge test, a commercial non-ionic surfactant was also included (0.25% v/v) to enhance wetting of the leaf surfaces of target plants. Immediately after application, test units of the pre-emerge applications were watered at the soil surface to incorporate the test materials.
(§5) At 14 days after application of the test materials, phytotoxicity ratings were recorded. A rating scale of 0-100 was used as previously described in Research Methods in Weed Science, 2nd edition, B. Truelove, Ed., Southern Weed Science Society, Auburn University, Auburn, Ala., 1977. Briefly, “0” corresponds to no damage and “100” corresponds to complete death of all plants in the test unit. This scale was used both to determine efficacy against weed species and damage to crop species. Herbicide activity data for various compounds of this invention, which are shown by compound No. in Tables 1-7, are shown in Tables 8 and 9.

[2] = system: lambsquarters (Chenopodium album, CHEAL); assay: Pre-emerge herbicidal activity, greenhouse screen, CHEAL
From the text: as §1, §2, §3, §4, §5

[3] = system: upland rice (Oryza sp., var. Tebonnet, RICE); assay: Pre-emerge crop damage, greenhouse screen, RICE
From the text: as §1, §2, §3, §4, §5

[4] = system: redroot pigweed (Amaranthus retroflexus, AMARE); assay: Post-emerge herbicidal activity, greenhouse screen, AMARE
From the text: as §1, §2, §3, §4, §5

[5] = system: johnsongrass (Sorghum halepense, SORHA); assay: Post-emerge herbicidal activity, greenhouse screen, SORHA
From the text: as §1, §2, §3, §4, §5

[6] = system: barnyardgrass (Echinochloa crus-galli, ECHCG); assay: Post-emerge herbicidal activity, greenhouse screen, ECHCG
From the text: as §1, §2, §3, §4, §5

[7] = system: green foxtail (Setaria viridis, SETVI); assay: Post-emerge herbicidal activity, greenhouse screen, SETVI
From the text: as §1, §2, §3, §4, §5

[8] = system: ivyleaf morningglory (Ipomoea hederacea, IPOHE); assay: Pre-emerge herbicidal activity, greenhouse screen, IPOHE
From the text: as §1, §2, §3, §4, §5

[9] = system: velvetleaf (Abutilon theophrasti, ABUTH); assay: Post-emerge herbicidal activity, greenhouse screen, ABUTH
From the text: as §1, §2, §3, §4, §5

[10] = system: lambsquarters (Chenopodium album, CHEAL); assay: Post-emerge herbicidal activity, greenhouse screen, CHEAL
From the text: as §1, §2, §3, §4, §5

[11] = system: soybean (Glycine max L., var. Pella 86, SOY); assay: Pre-emerge crop damage, greenhouse screen, SOY
From the text: as §1, §2, §3, §4, §5

[12] = system: sicklepod (Cassia obtusifolia, CASOB); assay: Pre-emerge herbicidal activity, greenhouse screen, CASOB
From the text: as §1, §2, §3, §4, §5

[13] = system: ivyleaf morningglory (Ipomoea hederacea, IPOHE); assay: Post-emerge herbicidal activity, greenhouse screen, IPOHE
From the text: as §1, §2, §3, §4, §5

[14] = system: common ragweed (Ambrosia artemisiifolia L., AMBEL); assay: Pre-emerge herbicidal activity, greenhouse screen, AMBEL
From the text: as §1, §2, §3, §4, §5

[15] = system: barnyardgrass (Echinochloa crus-galli, ECHCG); assay: Pre-emerge herbicidal activity, greenhouse screen, ECHCG
From the text: as §1, §2, §3, §4, §5

[16] = system: large crabgrass (Digitaria sanguinalis, DIGSA); assay: Pre-emerge herbicidal activity, greenhouse screen, DIGSA
From the text: as §1, §2, §3, §4, §5

[17] = system: field corn (Zea mays L., var. Dekalb 527, CORN); assay: Pre-emerge crop damage, greenhouse screen, CORN
From the text: as §1, §2, §3, §4, §5

[18] = system: large crabgrass (Digitaria sanguinalis, DIGSA); assay: Post-emerge herbicidal activity, greenhouse screen, DIGSA
From the text: as §1, §2, §3, §4, §5

[19] = system: common ragweed (Ambrosia artemisiifolia L., AMBEL); assay: Post-emerge herbicidal activity, greenhouse screen, AMBEL
From the text: as §1, §2, §3, §4, §5

[20] = system: sicklepod (Cassia obtusifolia, CASOB); assay: Post-emerge herbicidal activity, greenhouse screen, CASOB
From the text: as §1, §2, §3, §4, §5

[21] = system: velvetleaf (Abutilon theophrasti, ABUTH); assay: Pre-emerge herbicidal activity, greenhouse screen, ABUTH
From the text: as §1, §2, §3, §4, §5

[22] = system: soybean (Glycine max L., var. Pella 86, SOY); assay: Post-emerge crop damage, greenhouse screen, SOY
From the text: as §1, §2, §3, §4, §5

[23] = system: upland rice (Oryza sp., var. Tebonnet, RICE); assay: Post-emerge crop damage, greenhouse screen, RICE
From the text: as §1, §2, §3, §4, §5

[24] = system: green foxtail (Setaria viridis, SETVI); assay: Pre-emerge herbicidal activity, greenhouse screen, SETVI
From the text: as §1, §2, §3, §4, §5

[25] = system: redroot pigweed (Amaranthus retroflexus, AMARE); assay: Pre-emerge herbicidal activity, greenhouse screen, AMARE
From the text: as §1, §2, §3, §4, §5

[26] = system: johnsongrass (Sorghum halepense, SORHA); assay: Pre-emerge herbicidal activity, greenhouse screen, SORHA
From the text: as §1, §2, §3, §4, §5

Cn1c(C(F)(F)F)cc(=O)n(-c2ccc(Cl)c3nc(C(C)(C)C)oc23)c1=S [Compound 1-4]
15: Pre-emerge Herbicidal Activity CORN (crop damage) ([17]; 63 g ai/ha)
0: Post-emerge Herbicidal Activity CORN (crop damage) ([1]; 63 g ai/ha) | Post-emerge Herbicidal Activity DIGSA ([18]; 63 g ai/ha)
50: Post-emerge Herbicidal Activity SETVI ([7]; 63 g ai/ha) | Post-emerge Herbicidal Activity SOY (crop damage) ([22]; 63 g ai/ha) | Post-emerge Herbicidal Activity SOY (crop damage) ([22]; 250 g ai/ha)
65: Post-emerge Herbicidal Activity RICE (crop damage) ([23]; 250 g ai/ha)
10: Pre-emerge Herbicidal Activity SOY (crop damage) ([11]; 63 g ai/ha)
99: Pre-emerge Herbicidal Activity IPOHE ([8]; 63 g ai/ha) | Post-emerge Herbicidal Activity CASOB ([20]; 250 g ai/ha)
90: Pre-emerge Herbicidal Activity RICE (crop damage) ([3]; 250 g ai/ha) | Post-emerge Herbicidal Activity ECHCG ([6]; 63 g ai/ha) | Post-emerge Herbicidal Activity AMBEL ([19]; 63 g ai/ha) | Post-emerge Herbicidal Activity AMBEL ([19]; 250 g ai/ha)
20: Post-emerge Herbicidal Activity SORHA ([5]; 63 g ai/ha) | Post-emerge Herbicidal Activity DIGSA ([18]; 250 g ai/ha)
80: Pre-emerge Herbicidal Activity SOY (crop damage) ([11]; 250 g ai/ha) | Pre-emerge Herbicidal Activity AMBEL ([14]; 63 g ai/ha)
60: Pre-emerge Herbicidal Activity RICE (crop damage) ([3]; 63 g ai/ha) | Post-emerge Herbicidal Activity CASOB ([20]; 63 g ai/ha) | Post-emerge Herbicidal Activity RICE (crop damage) ([23]; 63 g ai/ha)
95: Post-emerge Herbicidal Activity IPOHE ([13]; 63 g ai/ha)
100: Pre-emerge Herbicidal Activity CHEAL ([2]; 63 g ai/ha) | Pre-emerge Herbicidal Activity CHEAL ([2]; 250 g ai/ha) | Post-emerge Herbicidal Activity AMARE ([4]; 63 g ai/ha) | Post-emerge Herbicidal Activity AMARE ([4]; 250 g ai/ha) | Post-emerge Herbicidal Activity ECHCG ([6]; 250 g ai/ha) | Post-emerge Herbicidal Activity SETVI ([7]; 250 g ai/ha) | Pre-emerge Herbicidal Activity IPOHE ([8]; 250 g ai/ha) | Post-emerge Herbicidal Activity ABUTH ([9]; 63 g ai/ha) | Post-emerge Herbicidal Activity ABUTH ([9]; 250 g ai/ha) | Post-emerge Herbicidal Activity CHEAL ([10]; 63 g ai/ha) | Post-emerge Herbicidal Activity CHEAL ([10]; 250 g ai/ha) | Pre-emerge Herbicidal Activity CASOB ([12]; 250 g ai/ha) | Post-emerge Herbicidal Activity IPOHE ([13]; 250 g ai/ha) | Pre-emerge Herbicidal Activity AMBEL ([14]; 250 g ai/ha) | Pre-emerge Herbicidal Activity ECHCG ([15]; 63 g ai/ha) | Pre-emerge Herbicidal Activity ECHCG ([15]; 250 g ai/ha) | Pre-emerge Herbicidal Activity DIGSA ([16]; 63 g ai/ha) | Pre-emerge Herbicidal Activity DIGSA ([16]; 250 g ai/ha) | Pre-emerge Herbicidal Activity ABUTH ([21]; 63 g ai/ha) | Pre-emerge Herbicidal Activity ABUTH ([21]; 250 g ai/ha) | Pre-emerge Herbicidal Activity SETVI ([24]; 63 g ai/ha) | Pre-emerge Herbicidal Activity SETVI ([24]; 250 g ai/ha) | Pre-emerge Herbicidal Activity AMARE ([25]; 63 g ai/ha) | Pre-emerge Herbicidal Activity AMARE ([25]; 250 g ai/ha) | Pre-emerge Herbicidal Activity SORHA ([26]; 63 g ai/ha) | Pre-emerge Herbicidal Activity SORHA ([26]; 250 g ai/ha)
30: Post-emerge Herbicidal Activity CORN (crop damage) ([1]; 250 g ai/ha) | Post-emerge Herbicidal Activity SORHA ([5]; 250 g ai/ha)
85: Pre-emerge Herbicidal Activity CORN (crop damage) ([17]; 250 g ai/ha)
70: Pre-emerge Herbicidal Activity CASOB ([12]; 63 g ai/ha)
